Where “and” joins values, the source holds several entries; their conditions need not be identical. Identical values can stand only once.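 Each compound was tested at five concentrations against cells in 96-well plates for 48 hours. GI50 marks 50% less growth. TGI: total growth inhibition.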
Experiments:
Assay in all cases: DTP human tumour cell line panel, 48 h
[1] = test system: HCT-15 colon
[2] = test system: HT29 colon
[3] = test system: TK-10 renal
[4] = test system: HOP-92 NSCLC
[5] = test system: LOX IMVI melanoma
[6] = test system: HCC-2998 colon
[7] = test system: NCI/ADR-RES ovarian
[8] = test system: T-47D breast
[9] = test system: PC-3 prostate
[10] = test system: DU-145 prostate

| Structure (SMILES) | TGI [1] | TGI [2] | TGI [3] | TGI [4] | TGI [5] | TGI [6] | TGI [7] | TGI [8] [µM] | TGI [9] | GI50 [7] | GI50 [1] | GI50 [10] | TGI [10] | GI50 [2] | GI50 [3] | GI50 [9] | GI50 [4] | GI50 [5] | GI50 [6] | GI50 [8] [µM] |
| --- | --- | --- | --- | --- | --- | --- | --- | --- | --- | --- | --- | --- | --- | --- | --- | --- | --- | --- | --- | --- |
| CCOc1ccccc1NC(=O)CCC(=O)OC | > 100 µM | > 100 µM | > 100 µM | > 100 µM | > 31.6 µM | > 100 µM | – | – | – | – | – | – | – | – | – | – | – | – | – | – |
| N#Cc1cc(C#N)c(Cl)nc1N | > 10 µM | > 10 µM | > 10 µM | > 10 µM | > 10 µM | > 10 µM | > 10 µM | > 10 | > 10 µM | – | – | – | – | – | – | – | – | – | – | – |
| N#C/C(=C\c1ccccc1O)C(N)=O | > 100 µM | > 100 µM | > 100 µM | > 100 µM | > 100 µM | > 100 µM | – | – | – | – | – | – | – | – | – | – | – | – | – | – |
| CN(C)c1ccc2c(c1)C(=O)N(OS(=O)(=O)c1ccc([N+](=O)[O-])cc1)C2=O | > 100 µM | 47.6 µM | > 100 µM | > 10 µM | – | 60.3 µM | – | – | – | – | – | – | – | – | – | – | – | – | – | – |
| Cc1ccc(C)c(NC(=O)C(=O)CC(=O)C2CCOC2=O)c1 (configuration not stated) | > 100 µM | > 100 µM | > 100 µM | > 100 µM | > 100 µM | – | – | – | – | – | – | – | – | – | – | – | – | – | – | – |
| Nc1nc(CCC(=O)Nc2cccc(C(F)(F)F)c2)cc(-c2cccc3ccccc23)n1 | > 100 µM | > 100 µM | > 100 µM | – | > 100 µM | > 100 µM | – | – | – | – | – | – | – | – | – | – | – | – | – | – |
| CN1CCc2cc3c(cc2C1O)OCO3 (configuration not stated) | 45 µM and > 100 µM | 47.1 µM and > 100 µM | 39.6 µM and > 100 µM | 39 µM and > 100 µM | 40.3 µM and > 100 µM | 36.9 µM and > 100 µM | 59.5 µM and > 100 µM | – | 42.7 µM and > 100 µM | 23.5 µM and > 100 µM | 20.8 µM and > 100 µM | 16.7 µM and > 100 µM | 30.8 µM and > 100 µM | 21.4 µM and > 100 µM | 19.7 µM and > 100 µM | 17 µM and > 100 µM | 20.8 µM and > 100 µM | 17.4 µM and > 100 µM | 18.8 µM and > 100 µM | – |
| O=C(Nc1ccc(Cl)cc1Cl)c1ccc(NC2=C(Cl)C(=O)N(Cc3ccccc3)C2=O)cc1 | > 100 µM | – | 81.9 µM | 26.7 µM | 19.1 µM | – | – | > 100 | 26.2 µM | – | 16.8 µM | 18.7 µM | 39.4 µM | – | 25.5 µM | 13.4 µM | 13.1 µM | 6.6 µM | – | 23.4 |
| Cc1cccc(C(=O)c2cccc3ccccc23)c1C(=O)O | > 100 µM | > 100 µM | > 100 µM | > 100 µM | > 100 µM | – | – | – | – | – | – | – | – | – | – | – | – | – | – | – |
| CC1=C(C(=O)NCc2ccccc2)C(c2ccc(C3C(C(=O)NCc4ccccc4)=C(C)NC(C)=C3C(=O)NCc3ccccc3)cc2)C(C(=O)NCc2ccccc2)=C(C)N1 | 39 µM | 20.3 µM | 37.8 µM | 32.9 µM | – | 35.3 µM | – | – | – | – | – | – | – | – | – | – | – | – | – | – |
| COC(=O)Cc1cc(OC)c(OC)cc1Br | – | > 100 µM | > 100 µM | > 100 µM | – | > 100 µM | – | – | – | – | – | – | – | – | – | – | – | – | – | – |
| O=C(O)c1ccccc1Cc1ccco1 | > 100 µM | > 100 µM | > 100 µM | > 100 µM | – | > 100 µM | – | – | – | – | – | – | – | – | – | – | – | – | – | – |
| O=C(CC1=Nc2nnc(-c3nnc4n3C(=O)C(CC(=O)c3cccnc3)=N4)n2C1=O)c1cccnc1 | > 100 µM | > 100 µM | > 100 µM | > 100 µM | > 100 µM | > 100 µM | – | – | – | – | – | – | – | – | – | – | – | – | – | – |
| C#CCC[C@@H]1O[C@@]1(C)CC/C=C(\C)CC/C=C/C=O | > 100 µM | > 100 µM | – | 63.5 µM | 35.2 µM | – | – | – | – | – | – | – | – | – | – | – | – | – | – | – |
| CC1CC2C3CC(F)C4=CC(=O)C=CC4(C)C3(F)C(O)CC2(C)C1(O)C(=O)COC(=O)C(C)(C)C (configuration not stated) | > 100 µM | > 100 µM | > 100 µM | > 100 µM | > 100 µM | > 100 µM | – | – | – | – | – | – | – | – | – | – | – | – | – | – |
| CC1=CCC[C@@]2(C)C(CC[C@@H]2C(C)/C=C/C(C)C)c2ccc(cc2C(=O)O)C[C@@H](O)CC1 (some centres not stated) | 18.5 µM | 17.6 µM | 25.1 µM | 28.9 µM | 19 µM | 23.5 µM | – | – | – | – | – | – | – | – | – | – | – | – | – | – |
| O=C1c2ccccc2C2(O)Nc3cc(O)ccc3C12O (configuration not stated) | > 100 µM | > 100 µM | > 100 µM | > 100 µM | > 100 µM | – | – | – | – | – | – | – | – | – | – | – | – | – | – | – |
| O=S(=O)(Nc1ncccn1)c1ccc(N=Nc2ccc(O)c3ncccc23)cc1 | 22.5 µM | 78 µM | – | – | 33.7 µM | 29 µM | 51.8 µM | – | > 100 µM | 5.37 µM | 4.05 µM | 12 µM | > 100 µM | 22.6 µM | – | 15.6 µM | – | 8.7 µM | 12.2 µM | – |
| CN1C(=O)c2c(ccc3c2OCO3)C2C(O)Cc3cc4c(cc3C21)OCO4 (configuration not stated) | 24.7 µM | 10.1 µM | > 100 µM | > 100 µM | > 100 µM | 64.4 µM | 8.28 µM | – | > 100 µM | – | – | – | 43.1 µM | – | – | – | – | – | – | – |
| CCC(C)CN1C(=O)NC(C)(Cc2ccccc2)C1=O (configuration not stated) | – | > 100 µM | > 100 µM | > 100 µM | > 100 µM | > 100 µM | – | – | – | – | – | – | – | – | – | – | – | – | – | – |

— PubChem BioAssay (NCI)
